# Test results taken from ChEMBL document CHEMBL4373692, “Structure-Based Development of (1-(3'-Mercaptopropanamido)methyl)boronic Acid Derived Broad-Spectrum, Dual-Action Inhibitors of Metallo- and Serine-β-lactamases” (J Med Chem, 2019).
# Assays:
# Beta-lactamase TEM = Beta-lactamase TEM (Bacteria, UniProt P62593); assay: Inhibition of bacterial N-terminal His-tagged TEV protease site linked TEM-1 (24 to 286 amino acids) expressed in Escherichia coli Transetta (DE3) preincubated for 10 mins followed by FC5 fluorescent substrate addition by fluorescence assay
# Sequence of Beta-lactamase TEM (P62593 whole entry, the tested form may be a part): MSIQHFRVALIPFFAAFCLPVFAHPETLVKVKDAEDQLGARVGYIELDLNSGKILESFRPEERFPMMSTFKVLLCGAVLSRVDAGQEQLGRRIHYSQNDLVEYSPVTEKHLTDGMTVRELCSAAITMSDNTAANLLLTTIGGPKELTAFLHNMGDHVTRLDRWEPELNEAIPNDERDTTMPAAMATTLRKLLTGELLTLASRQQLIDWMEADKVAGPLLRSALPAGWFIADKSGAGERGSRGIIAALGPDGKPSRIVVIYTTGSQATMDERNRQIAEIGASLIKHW
# [1] = Inhibition of bacterial N-terminal His-tagged TEV protease site linked KPC-2 (29 to 289 amino acids) expressed in Escherichia coli Transetta (DE3) preincubated for 10 mins followed by FC5 fluorescent substrate addition by fluorescence assay; parameters: species or system Bacteria
# [2] = Inhibition of bacterial N-terminal His-tagged TEV protease site linked SFH1 (3 to 234 amino acids) expressed in Escherichia coli Transetta (DE3) preincubated for 10 mins followed by FC5 fluorescent substrate addition by fluorescence assay; parameters: species or system Bacteria
# [3] = Inhibition of bacterial N-terminal His-tagged TEV protease site linked GOB-18 (1 to 290 amino acids) expressed in Escherichia coli Transetta (DE3) preincubated for 10 mins followed by FC5 fluorescent substrate addition by fluorescence assay; parameters: species or system Bacteria
# [4] = Inhibition of bacterial N-terminal His-tagged TEV protease site linked OXA-48 (1 to 265 amino acids) expressed in Escherichia coli Transetta (DE3) preincubated for 10 mins followed by FC5 fluorescent substrate addition by fluorescence assay; parameters: species or system Bacteria
# [5] = Inhibition of bacterial N-terminal His-tagged TEV protease site linked AmpC (20 to 377 amino acids) expressed in Escherichia coli Transetta (DE3) preincubated for 10 mins followed by FC5 fluorescent substrate addition by fluorescence assay; parameters: species or system Bacteria
# [6] = Inhibition of bacterial N-terminal His-tagged TEV protease site linked NDM-1 (1 to 270 amino acids) expressed in Escherichia coli Transetta (DE3) preincubated for 10 mins followed by FC5 fluorescent substrate addition by fluorescence assay; parameters: species or system Bacteria
# [7] = Inhibition of bacterial N-terminal His-tagged TEV protease site linked VIM-2 (27 to 266 amino acids) expressed in Escherichia coli Transetta (DE3) preincubated for 10 mins followed by FC5 fluorescent substrate addition by fluorescence assay; parameters: species or system Bacteria
# [8] = molecular target: Angiotensin-converting enzyme 2 (Homo sapiens, UniProt Q9BYF1); assay: Inhibition of human C-terminal His/FLAG-tagged ACE-2 expressed in HEK293 cells at 100 uM preincubated for 10 mins followed by Mca-Ala-Pro-Lys(Dnp)-OH substrate addition by fluorescence assay relative to control; assay type: cell-based; conditions: hek293, 100 µM
# Sequence of Angiotensin-converting enzyme 2 (Q9BYF1 whole entry): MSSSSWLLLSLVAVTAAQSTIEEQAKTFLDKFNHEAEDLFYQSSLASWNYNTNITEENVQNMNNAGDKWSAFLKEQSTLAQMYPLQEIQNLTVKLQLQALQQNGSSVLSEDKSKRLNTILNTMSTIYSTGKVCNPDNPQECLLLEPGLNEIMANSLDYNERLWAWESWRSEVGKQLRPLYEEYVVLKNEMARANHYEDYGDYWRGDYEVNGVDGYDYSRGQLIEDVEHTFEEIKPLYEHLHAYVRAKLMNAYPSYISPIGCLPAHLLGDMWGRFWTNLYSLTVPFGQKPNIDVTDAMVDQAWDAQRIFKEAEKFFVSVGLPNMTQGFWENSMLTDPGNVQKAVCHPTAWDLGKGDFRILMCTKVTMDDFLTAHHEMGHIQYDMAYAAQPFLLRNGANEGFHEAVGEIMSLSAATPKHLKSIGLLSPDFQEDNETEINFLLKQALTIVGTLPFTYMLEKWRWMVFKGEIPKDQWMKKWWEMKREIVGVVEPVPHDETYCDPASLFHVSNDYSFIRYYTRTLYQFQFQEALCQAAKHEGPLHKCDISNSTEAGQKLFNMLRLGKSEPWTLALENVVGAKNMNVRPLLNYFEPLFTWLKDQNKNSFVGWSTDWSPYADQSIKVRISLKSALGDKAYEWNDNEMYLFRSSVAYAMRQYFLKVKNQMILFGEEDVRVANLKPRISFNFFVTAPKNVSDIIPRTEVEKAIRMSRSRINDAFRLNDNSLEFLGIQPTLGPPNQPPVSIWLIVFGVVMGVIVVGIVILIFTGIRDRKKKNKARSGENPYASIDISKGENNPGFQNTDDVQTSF
# [9] = Inhibition of serine hydrolase in HEK293T cell lysates at 50 uM preincubated for 30 mins followed by TAMRA-FP probe labeling for 20 mins by SDS-PAGE based ABPP analysis; assay type: subcellular, Lysate; conditions: human, 20 min, 50 µM
# [10] = Inhibition of serine hydrolase in Escherichia coli Transetta (DE3) cell lysates at 50 uM preincubated for 30 mins followed by TAMRA-FP probe labeling for 20 mins by SDS-PAGE based ABPP analysis; assay type: subcellular, Lysate; conditions: 20 min, 50 µM
SMILES,Ki (Beta-lactamase TEM) [µM],Ki [1] [µM],Ki [2] [µM],Ki [3] [µM],Ki [4] [µM],Ki [5] [µM],Ki [6] [µM],Ki [7] [µM],inhibition (INH) [8],inhibition (INH) [9],inhibition (INH) [10]
CCCC(=O)NCB(O)O,100,38.1,5.78,12.1,102,58.5,> 300,> 300,,,
CC(C)[C@H](NC(=O)[C@H](C)CS)B(O)O,166,5.35,9.14,11.5,> 300,11.5,36.8,0.51,Not Active,,
CC(C)[C@@H](NC(=O)[C@H](C)CS)B(O)O,> 300,158,110,58,> 300,> 300,25.6,0.7,Not Active,,
COc1ccc(C[C@@H](NC(=O)[C@H](C)CS)B(O)O)cc1,80.7,11.1,0.74,2.5,> 300,1.18,7.22,0.56,Not Active,,
C[C@H](CS)C(=O)N[C@@H](B(O)O)c1ccccc1,68.6,7.76,2.45,5.45,257,7.03,46.6,2.69,Not Active,Not Active,Not Active
C[C@H](CS)C(=O)N[C@@H](B(O)O)c1ccc(F)cc1,67.9,7.08,0.28,1.02,> 300,1.57,21.1,0.65,Not Active,,
N#Cc1ccc(Oc2ccc3c(c2)COB3O)cc1 [CRISABOROLE],,,,,,,,,,Active,Active
CCCC(=O)N[C@@H](Cc1ccccc1)B(O)O,> 300,107,9.21,23.5,> 300,33.4,> 300,> 300,,,
C[C@H](CS)C(=O)N[C@@H](B(O)O)c1ccc2ccccc2c1,216,12,9.75,23.5,> 300,25.3,101,7.54,Not Active,,
CCC(=O)N[C@@H](Cc1ccccc1)B(O)O,> 300,> 300,152,252,> 300,158,> 300,> 300,,,
C[C@H](CS)C(=O)N[C@H](B(O)O)c1ccc(F)cc1,14.2,2.02,0.33,0.33,> 300,0.64,14.7,0.41,Not Active,,
C[C@H](CS)C(=O)N[C@H](Cc1ccc(F)cc1)B(O)O,179,14.6,0.77,6.33,> 300,1.98,17.4,0.48,Not Active,,
O=C(N[C@@H](Cc1ccccc1)B(O)O)[C@@H](CS)N1C(=O)c2ccccc2C1=O,32.8,8.65,7.76,32.1,> 300,27.4,57.7,2.41,,,
O=C(CS)N[C@@H](Cc1ccccc1)B(O)O,18.7,12.4,0.48,1.69,50.5,1.56,165,3.34,,,
C[C@H](CS)C(=O)N[C@H](B(O)O)c1ccc2ccccc2c1,2.03,0.78,11.1,17.9,> 300,20.2,13.1,0.72,Not Active,,
C[C@H](CS)C(=O)N[C@H](B(O)O)c1ccccc1,6.37,1.67,0.08,1.11,> 300,0.43,26.4,0.73,Not Active,Not Active,Not Active
CCC(=O)NCB(O)O,36.3,86.1,> 300,> 300,> 300,291,> 300,> 300,,,
Cc1ccc([C@H](NC(=O)[C@H](C)CS)B(O)O)cc1,2.41,4.35,0.51,2.78,> 300,1.99,16.7,3.28,Not Active,,
COc1ccc(C[C@H](NC(=O)[C@H](C)CS)B(O)O)cc1,3.36,1.96,0.51,1.72,172,1.23,27.2,0.18,Not Active,,
CC(C)C[C@@H](NC(=O)[C@H](C)CS)B(O)O,70.5,18.4,1.91,4.25,> 300,3.07,37.6,1.13,Not Active,,
C[C@H](CS)C(=O)N[C@@H](Cc1ccc(F)cc1)B(O)O,4.16,4.82,0.19,1.01,85.8,0.77,22.8,0.26,Not Active,,
O=C(CCS)N[C@@H](Cc1ccccc1)B(O)O,15.8,19.4,0.89,1.64,247,1.14,191,4.04,,,
CC(C)C[C@H](NC(=O)[C@H](C)CS)B(O)O,171,36.1,6.11,11.1,> 300,17.7,22.8,0.85,Not Active,,
C[C@H](CS)C(=O)NCC(=O)O,> 300,140,> 300,> 300,> 300,> 300,22.5,1.68,,,
O=C(CS)N[C@H](Cc1coc2ccccc12)B(O)O,6.84,0.5,0.12,1.67,217,0.97,10.2,42.8,Not Active,,
Cc1ccc([C@@H](NC(=O)[C@H](C)CS)B(O)O)cc1,13.5,11.5,0.35,2.75,> 300,2.03,15.9,1.28,Not Active,,
O=C(CCS)N[C@H](Cc1coc2ccccc12)B(O)O,35.7,5.56,0.63,2.5,> 300,4.47,16.5,0.33,Not Active,,
